Two molecules from patent US20100196311A1, “METHODS AND COMPOSITIONS CONTAINING mTOR INHIBITORS FOR ENHANCING IMMUNE RESPONSES” (priority 2009, published 2010) can be followed below.

One assay relates to OT-I cells. As to the kind of experiment: Type I effector functions (IFN-γ, CTL activity, Granzyme B) of OT-I cells, primary and secondary phase. It counts as cell-based, mouse. On the procedure: FIG. 3. Sustained mTOR Activity Is Essential for Heritable Type I Effector Differentiation of CD8^+ T Cells. […] (D and E) OT-I cells were stimulated with Ag+B7.1 (±) IL-12 and rapamycin was added 12 hr after stimulation to evaluate cells for (D) S6K phosphorylation at 48 hr and (E) IFN-γ production at the primary and secondary phase. Experiments shown are representative of at least three (A and B) and two (C-E) independent experiments with similar outcomes. (Data are presented as mean±SEM.)
Stimulation of OT-1 Cells. Naive OT-I cells were stimulated with latex microspheres expressing H-2K^b/ovalbumin antigen and B7.1 according to known techniques. Naive OT-II cells were stimulated with anti-CD3-/anti-CD28-coated latex beads. In some experiments, the cell line derived from embryonic fibroblasts, namely, BOK (MEC.B7.SigOVA: expressing H-2K^b, OVAp and B7.1, were used as antigen-presenting cells to stimulate naive OT-I cells according to known techniques.
Evaluation of Secondary Antigen-Recall Responses In Vitro. For studying secondary antigen-recall response in vitro; OT-I cells harvested at 72 hr (primary) were washed thrice with medium and recultured (1×10^5/ml) for an additional 72 hr in a 24-well plate with IL-7 (10 ng/ml) only. At 144 hr the cells were harvested, washed thrice with medium, had numbers adjusted (5×10^5), and were restimulated with Ag/B7.1 only for an additional 24 hr (secondary stimulation). At 168 hr, the cells recovered were evaluated by flow cytometry and in vitro functional assay.
Because the presence of IL-12 during antigen stimulation augments mTOR activity and is deterministic for type I effector maturation, we analyzed whether sustained mTOR kinase activity is required for IL-12-programmed type I effector functions in OT-I cells. To do so, we stimulated naive OT-I cells with BOK±IL-12, and rapamycin and effector functions were analyzed from the primary and secondary activated OT-I pool. […] In addition, we observed a block in IL-12-induced IFN-γ production and CTL activity upon rapamycin treatment at 144 hr after primary stimulation.

The test system of another assay is Eomesodermin. In words: Eomesodermin mRNA and protein expression in OT-I cells. It is filed as cell-based, mouse. On the procedure: FIG. 5. Inhibition of mTOR Promotes Persistent Eomes Expression and Phenotypic Markers of Memory in CD8+T Cells. (A and B) OT-I cells stimulated with Ag+B7.1 (±) IL-12 and rapamycin were evaluated for (A) mRNA for Eomes at the indicated time points by RT-PCR and (B) Eomes protein expression at 72 hr by ICS. *p<0.03. (C) OT-I cells stimulated with Ag+B7.1 (±) IL-12 and rapamycin were transduced with T-bet-ER retroviral vector (±) 4-HT (10 nM) and evaluated for Eomes protein expression at 96 hr. (D) OT-I cells stimulated with Ag+B7.1 (±) IL-12 and rapamycin were evaluated for CD62L, CD69, KLRG1, CD127, and CD122 expression at 72 hr. (E) Bcl-2 and Bcl-3 mRNA expression at the indicated time points. (F and G) OT-I cells stimulated with Ag+B7.1 (±) IL-12 and rapamycin for 72 hr were washed twice and rested for an additional 72 hr in the presence of (F) IL-7 (10 ng/ml), *p<0.02, and (G) IL-15 (10 ng/ml). *p<0.02 and percent (%) cell recovery was calculated at 144 hr. […]
The closely related transcription factors T-bet and Eomesodermin are inversely regulated in effector and memory CD8^+T cells. To determine whether mTOR inhibition, which curtailed T-bet expression, led to induction of Eomesodermin, we systematically analyzed Eomesodermin mRNA expression in OT-I cells. […] We also determined whether IFN-α could also regulate mTOR activity and T-bet expression in OT-I cells.

Setting [1] is: IFN-α, Ag+B7.1-stimulated OT-I cells.

As for IFN-α, in the assay with OT-I cells (setting [1]), the IFN-γ production entry is “increases”. In addition, the Eomesodermin expression result in the assay with Eomesodermin (setting [1]) is “increases”.

B1: IL-12: interleukin-12, cytokine (signal 3) (protein, UniProt P43431 23-215; P43432 23-335, looked up)
Interleukin-12 subunit alpha: RVIPVSGPARCLSQSRNLLKTTDDMVKTAREKLKHYSCTAEDIDHEDITRDQTSTLKTCLPLELHKNESCLATRETSSTTRGSCLPPQKTSLMMTLCLGSIYEDLKMYQTEFQAINAALQNHNHQQIILDKGMLVAIDELMQSLNHNGETLRQKPPVGEADPYRVKMKLCILLHAFSTRVVTINRVMGYLSSA
Interleukin-12 subunit beta: MWELEKDVYVVEVDWTPDAPGETVNLTCDTPEEDDITWTSDQRHGVIGSGKTLTITVKEFLDAGQYTCHKGGETLSHSHLLLHKKENGIWSTEILKNFKNKTFLKCEAPNYSGRFTCSWLVQRNMDLKFNIKSSSSSPDSRAVTCGMASLSAEKVTLDQRDYEKYSVSCQEDVTCPTAEETLPIELALEARQQNKYENYSTSFFIRDIIKPDPPKNLQMKPLKNSQVEVSWEYPDSWSTPHSYFSLKFFVRIQRKKEKMKETEEGCNQKGAFLVEKTSTEVQCKGGNVCVQAQDRYYNSSCSKWACVPCRVRS
Take B1: the “IFN-γ production and CTL activity” value in the assay on OT-I cells (IL-12 added to BOK-stimulated OT-I cells, 72 hr) was “robust”. In the assay on Eomesodermin (IL-12 addition to Ag+B7.1 stimulation), the Eomesodermin expression result is “reduced”.
